Test results taken from ChEMBL document CHEMBL1132737, “Oxygenated chalcones and bischalcones as potential antimalarial agents” (2000).

Assays:
Format in all cases: functional
[1] = system: Plasmodium berghei; test: Parasitaemia at day 13 after 50 mg/kg/day dose over 4 days
[2] = system: Plasmodium berghei; test: In vivo activity at day 9 against chloroquine-sensitive Plasmodium berghei infected mice (Mus musculus) at 100 mg/kg intraperitoneal dose over 4 days
[3] = system: Plasmodium berghei; test: In vivo activity after 13 days against chloroquine-sensitive Plasmodium berghei infected mice (Mus musculus) at 100 mg/kg intraperitoneal dose over 4 days
[4] = system: Plasmodium berghei; test: Parasitaemia at day 11 after 50 mg/kg/day dose over 4 days
[5] = system: Plasmodium berghei; test: Parasitemia at day 9 after 50 mg/kg/day dose over 4 days
[6] = system: Plasmodium berghei; test: Parasitemia at day 7 after 50 mg/kg/day dose over 4 days
[7] = system: Plasmodium berghei; test: Parasitaemia at day 15 after combination dose at 50 mg/kg/day with 15 mg/kg/day […] over 4 days
[8] = system: Plasmodium berghei; test: Parasitaemia at day 9 after combination dose at 50 mg/kg/day with 15 mg/kg/day […] over 4 days
[9] = system: Plasmodium berghei; test: In vivo activity at day 7 against chloroquine-sensitive Plasmodium berghei infected mice (Mus musculus) at 100 mg/kg intraperitoneal dose over 4 days
[10] = system: Plasmodium berghei; test: In vivo activity after 11 days against chloroquine-sensitive Plasmodium berghei infected mice (Mus musculus) at 100 mg/kg intraperitoneal dose over 4 days
[11] = system: Plasmodium berghei; test: In vivo activity after 15 days against chloroquine-sensitive Plasmodium berghei infected mice (Mus musculus) at 100 mg/kg intraperitoneal dose over 4 days
[12] = system: Plasmodium berghei; test: Parasitemia at day 13 after combination dose at 50 mg/kg/day with 15 mg/kg/day […] over 4 days
[13] = system: Plasmodium berghei; test: In vivo activity at day 5 against chloroquine-sensitive Plasmodium berghei infected mice (Mus musculus) at 100 mg/kg intraperitoneal dose over 4 days
[14] = system: Plasmodium berghei; test: Parasitaemia at day 7 after combination dose at 50 mg/kg/day with 15 mg/kg/day […] over 4 days
[15] = system: Plasmodium berghei; test: Parasitemia at day 5 after combination dose at 50 mg/kg/day with 15 mg/kg/day […] over 4 days
[16] = system: Plasmodium berghei; test: Parasitemia at day 15 after 50 mg/kg/day dose over 4 days
[17] = system: Plasmodium berghei; test: Parasitaemia at day 5 after 50 mg/kg/day dose over 4 days
[18] = system: Plasmodium berghei; test: Parasitaemia at day 11 after combination dose at 50 mg/kg/day with 15 mg/kg/day […] over 4 days
[19] = system: Plasmodium berghei; test: Parasitaemia at day 17 after combination dose at 50 mg/kg/day with 15 mg/kg/day […] over 4 days
[20] = system: Plasmodium berghei; test: Parasitaemia at day 19 after combination dose at 50 mg/kg/day with 15 mg/kg/day […] over 4 days
[21] = system: Plasmodium berghei; test: Parasitemia at day 17 after 50 mg/kg/day dose over 4 days

Row | Structure (SMILES) | Parasitaemia [1] [%] | Parasitaemia [2] [%] | Parasitaemia [3] [%] | Parasitaemia [4] [%] | Parasitaemia [5] [%] | Parasitaemia [6] [%] | Parasitaemia [7] [%] | Parasitaemia [8] [%] | Parasitaemia [9] [%] | Parasitaemia [10] [%] | Parasitaemia [11] [%] | Parasitaemia [12] [%] | Parasitaemia [13] [%] | Parasitaemia [14] [%] | Parasitaemia [15] [%] | Parasitaemia [16] [%] | Parasitaemia [17] [%] | Parasitaemia [18] [%] | Parasitaemia [19] [%] | further results
1 | COc1ccc(/C=C/C(=O)c2ccc(OCCCCCCOc3ccc(C(=O)/C=C/c4ccc(OC)c(OC)c4)cc3)cc2)cc1OC | 7.3 | 1.3 | 3.1 | 4.3 | 2 | 1.6 | 7.5 | 1.8 | 0.16 | 2.1 | 4.25 | 6 | 0 | 0.06 | 0 | 15 | 0.8 | 2.3 | 11 | –
2 | CC(=O)c1ccc(OCCCOc2ccc(C(=O)/C=C/c3ccc4c(c3)OCO4)cc2)cc1 | 7.8 | 1.7 | 3 | 6.7 | 2.2 | 1.8 | 7 | 1.96 | 0.35 | 2.75 | 3.85 | 5.1 | 0 | 0.04 | 0 | 11.5 | 0.7 | 3 | 13 | –
3 | COc1ccc(/C=C/C(=O)c2ccc(OCCCCOc3ccc(C(=O)/C=C/c4ccc(OC)c(OC)c4)cc3)cc2)cc1OC | 6.9 | 0.7 | 1.5 | 5 | 2.5 | 2.5 | – | 1.8 | 0 | 1 | 2 | 7.5 | 0 | 0.3 | 0.002 | 13.2 | 1.2 | 2.7 | – | –
4 | COc1ccc(/C=C/C(=O)c2ccc(OCCCCOc3ccc(C(=O)/C=C/c4ccc(OC)cc4OC)cc3)cc2)c(OC)c1 | 7.2 | 2.4 | 6.6 | 8 | 3.4 | 3.5 | 13 | 4 | 2 | 5.2 | 9.5 | 7.5 | 1.5 | 0.6 | 0.2 | 8.3 | 2.6 | 4.9 | 18 | –
5 | COc1ccc(/C=C/C(=O)c2ccc(OCCCOc3ccc(C(=O)/C=C/c4ccc(OC)c(OC)c4)cc3)cc2)cc1OC | 10.4 | 0.6 | 1.5 | 5 | 2 | 2.4 | 18 | 1.9 | 0.05 | 0.9 | 3 | 12.2 | 0.01 | 1.3 | 0 | – | 0.74 | 7.6 | 24 | –
6 | COc1ccc(/C=C/C(=O)c2ccc(OCOc3ccc(C(=O)/C=C/c4ccc(OC)c(OC)c4)cc3)cc2)cc1OC | 14.3 | 7.25 | – | 10.2 | 5.8 | 2.3 | 4.4 | 0.3 | 5.6 | – | – | 1.4 | 2.8 | 0 | 0 | – | 1.5 | 0.8 | 11.6 | Parasitaemia [20]: 22.6%
7 | COc1cccc(/C=C/C(=O)c2ccc(OCCCCOc3ccc(C(=O)/C=C/c4cccc(OC)c4)cc3)cc2)c1 | 10.8 | 3.9 | 19 | 6.6 | 5.7 | 2.1 | 10 | 2.9 | 2 | 6.4 | – | 7.5 | 1.5 | 3.2 | 0.8 | 13.3 | 1.9 | 5 | 16 | –
8 | COc1ccc(/C=C/C(=O)c2ccc(OCCCOc3ccc(C(=O)/C=C/c4ccc(OC)cc4OC)cc3)cc2)c(OC)c1 | 10 | 8 | – | 8.4 | 4.8 | 2.2 | 13.7 | 3.76 | 4.7 | – | – | 9.5 | 3.2 | 2.3 | 1.2 | 12.5 | 1.3 | 7.7 | 18 | Parasitaemia [21]: 16%
9 | CC(=O)c1ccc(OCCCCCCOc2ccc(C(=O)/C=C/c3ccc4c(c3)OCO4)cc2)cc1 | 9 | 4 | – | 6.5 | 4.8 | 3.2 | 8 | 3.2 | 2.1 | 6.3 | – | 5.5 | 1 | 2 | 0.02 | 10 | 2.2 | 3.2 | – | –
10 | COc1cccc(/C=C/C(=O)c2ccc(OCCCOc3ccc(C(=O)/C=C/c4cccc(OC)c4)cc3)cc2)c1 | 5.4 | 1 | 1.81 | 4.2 | 4.2 | 1.9 | 7 | 3 | 0.52 | 1.8 | 1.7 | 4.6 | 0 | 1.1 | 0.08 | 13 | 1.75 | 3 | 9.5 | Parasitaemia [21]: 19%; Parasitaemia [20]: 13%
11 | COc1ccc(/C=C/C(=O)c2ccc(OCOc3ccc(C(=O)/C=C/c4ccc(OC)cc4OC)cc3)cc2)c(OC)c1 | – | 2 | – | – | – | – | – | – | 5 | – | – | – | 3.4 | – | – | – | – | – | – | –
12 | COc1cccc(/C=C/C(=O)c2ccc(OCCCCCCOc3ccc(C(=O)/C=C/c4cccc(OC)c4)cc3)cc2)c1 | 13 | 6.8 | – | 9.5 | 7.9 | 3.2 | 6.6 | 0.14 | 3.4 | 11 | – | 3.6 | 2.1 | 0 | 0 | – | 1.8 | 2 | 11.5 | –
